Here are results for 5 molecules from ChEMBL document CHEMBL1135249, “Probing the overlap of chorismate mutase and prephenate dehydrogenase sites in the escherichia coli T-protein: a dehydrogenase-selective inhibitor” (Bioorg Med Chem Lett, 2002).

The nature of test [1]: Tested for its inhibitory activity against the enzyme chorismate mutase (CM) in Escherichia coli T-protein.
Test [2] is described as follows: Tested for its inhibitory activity against the enzyme prephenate dehydrogenase (PDH) in Escherichia coli T-protein.
A short description of test [3]: Tested for the inhibition against prephenate dehydrogenase. Also on record: species or system Escherichia coli.
Test [4] can be described thus: Tested for its inhibitory activity against the enzyme chorismate mutase (CM) in Escherichia coli T-protein; no effect up to 1 mM.

The structures appear in SMILES notation. pIC50, pKi: −log10 of the molar value.

For orientation: pKi means −log10 of the Ki, conventionally taken in molar units. Low readings indicate a large Ki, high ones a small Ki. Take `O=P(O)(O)C12C[C@H]3C[C@@H](C1)C[C@@H](C2)C3`: the negative logarithm of the Ki (pKi) in test [1] is 3.70; in test [2], 3.85.

On to `C=C(O[C@@H]1C=C(C(=O)O)C(O)C(O)[C@H]1O)C(=O)O` (stereo partly specified), for which the figures for the pKi in test [1] and in test [2] were 3.39 and 3.96, respectively.

Usually pIC50 stands for −log10 of the IC50, conventionally taken in molar units. Low values mean a large IC50, high ones a small IC50. With `O=C(O)[C@@H]1Cc2cccc3cccc(c23)C[C@H]1C(=O)O` (racemic), in test [2], the negative logarithm of the Ki (pKi) is 3.67. Further, in test [3], the negative logarithm of the IC50 (pIC50) was 3.60. In addition, in test [4], the Ki result was “no effect up to 1 mM”.

`O=C(O)[C@]12C[C@H]3C[C@H](C[C@H](C3)C1)C2`: the negative logarithm of the Ki (pKi) was 3.37 in test [1] and 3.51 in test [2].

In the case of `C=C(O[C@@H]1C=C(C(=O)O)CCC1O)C(=O)O` (stereo partly specified), the negative-log Ki (pKi) in test [1] was 3.37; in test [2], 3.23.
